Read-outs that look alike come from different tables or passages of the source.
Tests used:
[1] = tested on: LPS-induced lung inflammation; assay: LPS-induced lung inflammation in mice (RT-qPCR of lung transcripts); assay type: in vivo, C57BL/6J mice; details: male mice, 50 mg/kg i.p. 1 h before and 8 h after i.n. LPS 10 μg/mouse, 24 h
Experimental: FIG. 5: Effects of clofoctol treatment on LPS-induced lung inflammation. Male C57BL/6J mice were treated i.p. with clofoctol (50 mg/kg) or vehicle 1 h before and 8 h after i.n. inoculation of LPS (10 μg/mouse) or PBS. Animals were sacrificed 24 h after LPS inoculation. mRNA copy numbers of genes were quantified by RT-qPCR. Data are expressed as fold change over average gene expression in PBS-treated animals. Results are expressed as the mean±SD (n=6). Significant differences were determined using the Mann-Whitney U test (**p<0.01).
C57BL/6 mice were inoculated by the intra-nasal route with LPS (Escherichia coli 0111:B4) at 10 μg/mouse. Clofoctol was injected i.p. 1 h before and 8 h after LPS administration. Mice were sacrificed 24 hrs after LPS inoculation.

[2] = tested on: IAV H1N1 A/California/04/2009 (pdm09); assay: IAV infection in mice: viral load, lung inflammation, pathology; assay type: in vivo, C57BL/6J mice; details: 50 mg/kg i.p.
[3] = tested on: SARS-CoV-2; assay: In vitro antiviral activity (IC95) of clofoctol; assay type: cell-based
[4] = tested on: PMA-differentiated THP-1 macrophages; assay: LPS-induced cytokine expression in PMA-differentiated THP-1 macrophages (RT-qPCR and ELISA); assay type: cell-based, human; details: clofoctol 1 hour prior to LPS 100 ng/mL
Experimental: FIG. 4: Effects of clofoctol treatment on LPS-induced cytokine mRNA expression by PMA-differentiated THP-1 macrophages. a, b, c and d) mRNA expression of MCP1, TNFα, IL-6 and IL-1β were quantified by RT-qPCR. Data are expressed as a fold-increase over the mean gene expression level in solvent control wells. (mean+/−SD from 3 experiments in duplicate). Significant differences were determined using the one-way ANOVA corrected for Dunnett's multiple comparisons test (**p<0.01; ***p<0.001, ****p<0.0001). ELISA of MCP1, TNFα and IL-6 (e, f and g) from supernatant of THP-1 cells pre-treated or not with Clofoctol or Dexamethasone and stimulated with LPS during 24 h. Results are expressed as the concentration of cytokine in pg/mL. (mean from one experiment in duplicate).
THP-1 designates a spontaneously immortalized monocyte-like cell line, derived from the peripheral blood of a childhood case of acute monocytic leukemia. Cells were cultivated in RPMI with HEPES without Glutamine complemented with 2 mM Glutamine, 10% FBS and 1% Penicillin/streptomycin and incubated at 37° C.-5% CO2. THP1 cells were used from passage 7 until passage 14 and they were negative for mycoplasma contamination, which was assessed with MycoAlert™ Mycoplasma Detection Kit (Lonza-Basel, Switzerland). […] In THP1, The levels of human cytokines were measured after 24 h of stimulation in the collected supernatants with human CCL2/MCP-1, IL-6 and TNF-α Duoset ELISA (R&D systems, Minneapolis, MN) according to the manufacturer's protocols.
Total RNA was extracted with NucleoSpin® RNA kit (Macherey-Nagel, Hoerdt, Germany). […] Relative quantification of MCP1, TNF-α, IL-6 and IL-1β was performed using the gene coding glyceraldehyde 3-phosphate dehydrogenase (GAPDH). Relative mRNA levels (2-ΔΔCt) were determined by comparing (a) the PCR cycle thresholds (Ct) for the gene of interest and the house keeping gene GAPDH (ΔCt) and (b) ΔCt values for treated and control groups (ΔΔCt). Data are expressed as a fold-increase over the mean gene expression level in solvent control wells.

[5] = tested on: SARS-COV-2; assay type: in vivo, K18-hACE2 transgenic C57BL/6J mice
[6] = tested on: MPI cells; assay: LPS-induced cytokine production by alveolar macrophage MPI cells (ELISA); assay type: cell-based, C57BL/6J mouse; details: clofoctol added 30 minutes prior to LPS 10 ng/ml, 24 h, supernatant ELISA
Experimental: FIG. 3: Effects of clofoctol treatment on LPS-induced cytokine production by alveolar macrophages. ELISA of IL-1β, IL-12p40, TNFα, and MCP-1 from supernatant of MPI cells pre-treated or not with clofoctol and stimulated or not with LPS during 24 h. The percentage cell viability post treatment is indicated. Significant differences were determined using the two-way ANOVA corrected for Dunnett's multiple comparisons test (viability test) or one-way ANOVA corrected for Dunnett's multiple comparisons test (n=7-11) (**p<0.01; ***p<0.001, ****p<0.0001).
Max Plank Institute (MPI) cells are self-renewing and non-transformed cells originated from fetal liver of C57BL/6J mouse. MPI cells were used as a model of alveolar macrophages, due to their closer profile (Fejer et al., 2013). Cells were cultivated in RPMI Glutamax with 10% FBS, 1% Penicillin/streptomycin, and 30 ng/mL GM-CSF and incubated on 37° ° C.5% CO2. MPI cells were used from passage 6 until passage 30 and they were negative for mycoplasma contamination, which was assessed with MycoAlert™ Mycoplasma Detection Kit (Lonza-Basel, Switzerland). […] Cytokine production was measured from the supernatant of cells after 24 h of stimulation, accordingly to protocol's manufactures for IL-1β, IL-12p40, TNF-α, and MCP-1 (R&D Systems—Minneapolis, MN). […]

[7] = tested on: IAV H1N1 A/California/04/2009 (pdm09); assay: Long-term sequela (fibrosis) imposed by IAV infection in mice; details: 50 mg/kg i.p. once a day for 4 days
[8] = female mice, day 4 post-infection
[9] = female C57BL/6 mice, single i.p. dose 62.5 mg/kg

CC(C)(C)CC(C)(C)c1ccc(O)c(Cc2ccc(Cl)cc2Cl)c1 [clofoctol, 2-[(2,4-dichlorophenyl)methyl]-4-(2,4,4-trimethylpentan-2-yl)phenol]
expression of transcripts encoding IL-6, TNFα, IL-1β, IFN-γ, IL12p40 and CCL2 in lungs [1]: markedly reduced | IL-6 and IL-12p40 production in lungs ([2]; ELISA, 4 dpi): Reduced | transcript expression of interferon-stimulated genes Mx1, ISG15 and Cxcl10 ([2]; RT-qPCR): reduced | viral RNA yields by RT-qPCR ([2]; day 2 and 4 post-infection): trend in reduced viral load | infectious viral load in the lungs ([2]; day 2 and day 4 post-infection, titration on MDCK cells): slightly reduced | expression of transcript encoding TNFα in lungs ([2]; day 2 post-infection, RT-qPCR): to a lower extent | expression of transcripts encoding IL-6, IL-12p40, Ccl2, IFN-γ in lungs ([2]; day 2 post-infection, RT-qPCR): reduced | lung pathology (histology, inflammation scoring) ([2]; day 4 post-infection, hematoxylin and eosin): only a minimal interstitial inflammation | IC95 measured in vitro [3]: ~10 µM | expression of MCP1 and IL-6 genes ([4]; 5 hours, RT-qPCR): significantly reducing | MCP1 and IL-6 protein in supernatant ([4]; 24 hours, ELISA): significantly reducing | IL1-β and TNF-α expression/production ([4]; RT-qPCR (5 hours) and TNFα ELISA (24 hours)): not significantly modulating | viral load by RT-qPCR ([5]; female mice treated during the first 2 days, day 4 post-inoculation): decrease in viral load | viral RNA yields in lungs by RT-qPCR ([5]; female mice, 62.5 mg/kg i.p., day 2 post-infection): reduced viral load | expression of transcripts encoding IL-6, TNFα, IL12p40, IFNβ, IFNγ and ISG Mx1, Ifi44, ISG15 in lungs ([5]; female mice, 62.5 mg/kg i.p., day 2 post-infection, RT-qPCR): markedly reduced | reduction of infectious viral load in the lungs vs vehicle ([5]; female mice, 62.5 mg/kg i.p., day 2 post-infection, titration on Vero-81 cells): more than 1.1 log10 | expression of transcripts encoding inflammatory markers [5, 8]: strongly decreased | lung pathology (histology) [5, 8]: only a minimal interstitial inflammation | inflammatory score of lung sections ([5]; female mice, day 4 post-infection, blinded scoring): reduces the inflammatory score | infection-induced drop of Ocln and ZO1 transcript levels (epithelial barrier markers) ([5]; female mice, day 4 post-infection, lungs): significantly reduced | production of inflammatory cytokines IL-1β, IL-12p40 and TNF-α [6]: inhibited, in a dose dependent manner | clofoctol concentration in the lungs (62.5 mg/kg i.p. twice daily during two days, 1 h after the fourth administration): 67 µM | plasma concentration relative to lung concentration [9]: seven times lower | time lung concentration remained above this level (61 μM) [9]: ~4 h | clofoctol concentration in the lungs (female C57BL/6 mice, single i.p. dose 62.5 mg/kg, 30 min after injection): up to 61 μM | lung fibrosis (Red Sirius staining) ([7]; 28 days post-infection): tended to develop less fibrosis | body weight ([7]; IAV-infected mice): reduces body weight

Reference: US20240238217A1, “USE OF CLOFOCTOL FOR THE TREATMENT OF INFLAMMATION” (INSTITUT NATIONAL DE LA SANTÉ ET DE LA RECHERCHE MÉDICALE, priority 2021, published 2024)
